One assay has as its system eotaxin. Put plainly: eotaxin secretion from MLEC (ELISA). The format is cell-based, mouse. The conditions noted are these: MLEC treated directly; theophylline 1 μM, leucine 0.5 mM, resveratrol 200 nM; FIG. 5. The source says:
(§1) Interleukin 1-β, eotaxin, and interleukin 6 were all measured via enzyme-linked immunosorbent assay using specific antibodies for each cytokine (Abcam, Cambridge, Mass.) and a horseradish peroxidase-based second antibody detection system, with chromogenic detection at 450 nm using a microplate reader (Synergy HT, BioTek Instruments, Winooski, Vt.).
(ELISA stands for enzyme-linked immunosorbent assay.)

Another assay relates to IL1-β. Put plainly: IL1-β secretion from MLEC (ELISA). The format is cell-based, mouse. The conditions noted are these: MLEC treated directly; theophylline 1 μM, leucine 0.5 mM, resveratrol 200 nM; FIG. 4.
Description: as §1

The test system of assay [1] is IL 6. Put plainly: IL 6 secretion from MLEC (ELISA). The format is cell-based, mouse. The conditions noted are these: positive control, FIG. 8. The protocol:
(§2) Cells were grown in Dulbecco's modified eagle's medium (DMEM) containing a growth factor supplement (Cell Biologics #M1 166) which included 5% fetal bovine serum (FBS), heparin, EGF, hydrocortisone, L-glutamine and antibiotics at 37° C. in 5% CO2.
as §1
(§3) Following treatment, western blots or ELISA assays were performed on the MLEC to determine the level of various indicators of airway diseases, such as NFκB protein expression, eotaxin secretion, IL1-β secretion, cellular IL6 content or secretion, adiponectin receptor 1 protein expression, and adiponectin receptor 2 protein expression.

In the next assay the test system is NFκB. The experiment in a line: NFκB protein expression by Western blot in directly treated MLEC. The conditions noted are these: theophylline 1 μM, leucine 0.5 mM, resveratrol 200 nM, FIG. 1. (In general: Immunoblotting shows a protein as a band on a membrane.)
In assay [2] the test system is OVA-induced asthmatic mice. The experiment in a line: BALF cellularity by flow cytometry in OVA-induced asthma. The format is in vivo, Balb/c mice. The note with it: theophylline 10 mg/kg IP, baseline 12 g leucine diet. On the procedure:
The interactive effects of leucine and theophylline was evaluated in sixty young adult female Balb/c mice that were randomized to the following six groups (n=10/group):
Group 1 was an untreated control group that was administered a diet containing a baseline level of leucine at 12 g of leucine/day.
Group 2 was a positive control group that was administered dexamethasone via IP injection and a diet containing a baseline level of leucine at 12 g of leucine/day.
Group 3 was administered a diet containing a high level of leucine (diet containing leucine at 12 g/day for days 0-13 and 24 g/day beginning on day 14) and no theophylline or dexamethasone.
Group 4 was administered sub-therapeutic level of theophylline (1 mg/kg theophylline, 10% of therapeutic level) via IP injection and a high leucine diet (diet containing leucine at 12 g/day for days 0-13 and 24 g/day beginning on day 14). […]
Animals were sacrificed on day 28, subjected to bronchial alveolar lavage and the lavage fluid (BALF, 2 mL) and lungs collected. Airway inflammation was evaluated by assessing cellularity of BALF via flow cytometer; parameters used for cellular differentiation were sized granularity, autofluorescence and the expression of the following markers: CD45, Gr-1, CD11b, CCR3, B220 and CD3. […]

In assay [3] the test system is IL 6. The experiment in a line: cellular IL 6 content in MLEC (ELISA). The format is cell-based, mouse. The note with it: MLEC treated directly; theophylline 1 μM, leucine 0.5 mM, resveratrol 200 nM; FIG. 7. The protocol:
as §2, §1, §3

On to TNFα, for which the “eotaxin secretion into the media” value in the assay with eotaxin is “no significant effect”. The IL1-β secretion entry with IL1-β is listed as “significant increase”. Also, in the assay with IL 6 [1], the “IL 6 secretion” value is “significant increase”.

Regarding `Cn1c(=O)c2[nH]cnc2n(C)c1=O` [theophylline], the “NFκB protein expression relative to control” value in the assay with NFκB was “no independent effect”. For the same compound, the IL1-β secretion result in the assay with IL1-β is given as “no significant independent effect”. Also, the “eosinophil number in BALF” value in assay [2] (FIG. 15) is “modest significant decreases”. In addition, the “T-cell number in BALF” value in assay [2] (trend not significant (0.05<p<0.1), FIG. 16) was “modestly reduced”. Moreover, the “cellular expression of IL 6” value in the assay on IL 6 [3] is listed as “unaffected”.

Source of the values: patent publication US10039733B2, “Compositions, method, and kits for treating pulmonary conditions” (NuSirt Sciences, Inc., priority 2013, dated 2018).
